EP3925949A1, “AZIDO COMPOUNDS AND METHOD FOR MONITORING ACID CERAMIDASE ACTIVITY IN INTACT CELLS USING THEM” (Consejo Superior de Investigaciones Científicas (CSIC), priority 2020, dated 2021)

Molecular target: T1, human recombinant neutral ceramidase (NC) (Homo sapiens, UniProt Q9NR71)
T1 construct: purchased R&D Systems
Assay: Hydrolysis of RBM5-177 by recombinant NC, UPLC-HRMS
Assay type: biochemical
Settings: RBM5-177 5 µM, 30 min
Experimental: Cells were seeded at 5 × 10^5 cells/mL into 6 well plates (1 mL/well) and were allowed to adhere for 24 h. Medium was replaced with fresh medium containing RBM5-177, RBM5-019 or RBM2-37 (5 µM final concentration). After 30 min, medium was removed; cells were washed with 400 µL PBS and harvested with 400 µL Trypsin-EDTA and 600 µL of medium. NC recombinant enzyme, lysates from A375-AC overexpressing cells, MEF5 or microsomes from HeLa T-Rex ACER1-TET-ON and HeLa T-Rex […] activity buffer. Cell pellets were resuspended with 100 µL of H2O and mixed with 750 µL of methanol: chloroform, 2:1. Samples were heated at 48°C overnight and next day, 75 µL of 1 M KOH in methanol were added, followed by 2 h incubation at 37°C. Afterwards, the saponification was neutralised with 75 µL of 1 M acetic acid and solvent was removed using a Speed Vac Savant SPD131 DDA (Thermo Scientific). Sphingolipid extracts, fortified with internal standards (N-dodecanoylsphingosine, N-dodecanoylglucosylsphingosine, N-dodecanoylsphingosylphosphorylcoline and C17-sphinganine 0.2 nmol each) were solubilised in 150 µL of methanol. Samples were then centrifuged at 9,300 g for 3 min and 130 µL of the supernatant were injected to a Waters Aquity UPLC system connected to a Waters LCT Premier Orthogonal Accelerated Time of Flight Mass Spectrometer (Waters,Milford, MA, USA) operated in positive electrospray ionisation mode. […]

T1 sequence (Q9NR71 whole entry): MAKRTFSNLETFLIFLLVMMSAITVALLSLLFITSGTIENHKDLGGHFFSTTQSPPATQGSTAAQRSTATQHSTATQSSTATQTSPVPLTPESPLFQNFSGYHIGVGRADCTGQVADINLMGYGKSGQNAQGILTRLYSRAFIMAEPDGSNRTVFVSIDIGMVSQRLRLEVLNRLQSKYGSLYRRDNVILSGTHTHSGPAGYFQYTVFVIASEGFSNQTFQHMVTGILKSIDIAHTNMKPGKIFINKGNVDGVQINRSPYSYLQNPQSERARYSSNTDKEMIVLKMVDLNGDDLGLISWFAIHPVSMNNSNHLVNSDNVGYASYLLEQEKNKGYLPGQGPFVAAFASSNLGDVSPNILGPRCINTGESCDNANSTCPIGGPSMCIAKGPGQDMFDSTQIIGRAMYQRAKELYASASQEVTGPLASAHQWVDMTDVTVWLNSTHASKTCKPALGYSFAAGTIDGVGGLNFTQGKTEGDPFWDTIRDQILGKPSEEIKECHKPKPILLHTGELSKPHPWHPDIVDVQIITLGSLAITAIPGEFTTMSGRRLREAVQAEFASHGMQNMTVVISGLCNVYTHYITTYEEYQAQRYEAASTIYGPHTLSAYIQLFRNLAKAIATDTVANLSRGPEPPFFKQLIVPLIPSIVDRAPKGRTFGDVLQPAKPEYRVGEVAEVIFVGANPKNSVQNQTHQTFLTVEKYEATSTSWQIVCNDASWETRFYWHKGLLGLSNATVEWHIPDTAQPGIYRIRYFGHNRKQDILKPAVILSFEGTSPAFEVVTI

## CCCCCCCC(=O)N[C@@H](C)[C@H](O)CCCCCCCCCCCCN=[N+]=[N-] [RBM5-177, N-((2S,3R)-15-azido-3-hydroxypentadecan-2-yl)octanamide]
  RBM5-19 formation (hydrolysis as substrate): transformed into the free amine only by AC
